Article PMC7442133, “Reduced treatment frequencies with bumped kinase inhibitor 1369 are effective against porcine cystoisosporosis” (International Journal for Parasitology: Drugs and Drug …, 2020)
“And” between values parts separate entries of the source, which are not always exact repeats. Identical values can stand only once. “Also recorded” adds a separate entry of the source.

Key:
C. suis (strain Wien-I) = experiment: Fecal score and diarrhea of experimentally infected suckling piglets; type: in vivo, Cystoisospora suis
[1] = Body weight development of experimentally infected suckling piglets; type: in vivo; conditions: for BW SD 8 / BW SD 15 / BW SD 22 / BW SD 29 / BW SD 1: SD in brackets; for BW SD 1: before treatment
[2] = Post-treatment observations for adverse events; type: in vivo, piglets
Protocol: For both experiments, post-treatment observations for any adverse events such as swelling/bleeding of the iron injection site, inability to stand, walk, suckle or other abnormal behavior, including dyspnoea, vomiting, limping, lateral recumbency, signs of pain, distress or neurological alterations ([Oldham, 1985]), were conducted under blinded conditions by a veterinarian at 2 h, 24 h and 48 h after treatment. In addition, all piglets were observed daily during the course of the studies to ensure good health, and any condition that required veterinary intervention was recorded and addressed.

[3] = Exp I group A: 1 × 20 mg/kg BW oral, SD 3 (0 dpi)
[4] = Exp I group B: 1 × 20 mg/kg BW oral, SD 5 (2 dpi)
[5] = Exp I group C: 2 × 20 mg/kg BW oral, SD 5 & SD 7 (2 & 4 dpi)
[6] = Exp II group W: 1 × 20 mg/kg BW oral, SD 5 (2 dpi)
[7] = Exp II group X: 1 × 10 mg/kg BW oral, SD 5 (2 dpi)
[8] = Exp II group Y: 1 × 5 mg/kg BW oral, SD 5 (2 dpi)
[9] = irrespective of time points and frequencies of treatment
[10] = Exp I group A: 1 × 20 mg/kg BW, SD 3 (0 dpi)
[11] = Exp I group B: 1 × 20 mg/kg BW, SD 5 (2 dpi)
[12] = Exp I group C: 2 × 20 mg/kg BW, SD 5 & 7 (2 & 4 dpi)
[13] = Exp II group W: 1 × 20 mg/kg BW, SD 5 (2 dpi)
[14] = Exp II group X: 1 × 10 mg/kg BW, SD 5 (2 dpi)
[15] = Exp II group Y: 1 × 5 mg/kg BW, SD 5 (2 dpi)

Question: Which “% piglets with diarrhea at least once” value (C. suis (strain Wien-I); [3]) does the source give for `CCOc1ccc2cc(-c3nn(CC4CCN(C)CC4)c4ncnc(N)c34)ccc2n1` [BKI 1369] here?
Answer: 60%

Question: And the “Number of diarrhea days ± SD” value (C. suis (strain Wien-I); [3])?
Answer: 1.4 ± 1.71 days

Question: And the “% piglets with diarrhea at least once” value (C. suis (strain Wien-I); [4])?
Answer: 18.18%

Question: And the “Number of diarrhea days ± SD” value (C. suis (strain Wien-I); [4])?
Answer: 0.27 ± 0.65 days

Question: And the “% piglets with diarrhea at least once” value (C. suis (strain Wien-I); [5])?
Answer: 27.27%

Question: What about the “Number of diarrhea days ± SD” value (C. suis (strain Wien-I); [5]) of the same compound?
Answer: 0.45 ± 0.93 days

Question: And the “Mean FS and diarrhea days compared to control piglets (in words)” value (C. suis (strain Wien-I); Exp I: single dose 20 mg/kg BW at 2 dpi)?
Answer: significantly lower mean FS and fewer diarrhea days

Question: And the “Effect on diarrhea (in words)” value (C. suis (strain Wien-I); Exp I: single dose of 20 mg/kg BW on the day of infection)?
Answer: failed to reduce occurrence of diarrhea

Question: And the “Mean FS and diarrhea days compared to control piglets (in words)” value (C. suis (strain Wien-I); Exp I: two doses 20 mg/kg BW at 2 and 4 dpi)?
Answer: significantly lower mean FS and fewer diarrhea days

Question: And the “% piglets with diarrhea at least once” value (C. suis (strain Wien-I); [6])?
Answer: 10%

Question: And the “Number of diarrhea days ± SD” value (C. suis (strain Wien-I); [6])?
Answer: 0.2 ± 0.63 days

Question: And the “% piglets with diarrhea at least once” value (C. suis (strain Wien-I); [7])?
Answer: 40%

Question: What about the “Number of diarrhea days ± SD” value (C. suis (strain Wien-I); [7]) of the same compound?
Answer: 0.5 ± 0.70 days

Question: What about the “% piglets with diarrhea at least once” value (C. suis (strain Wien-I); [8]) of the same compound?
Answer: 77.80%

Question: And the “Number of diarrhea days ± SD” value (C. suis (strain Wien-I); [8])?
Answer: 2.6 ± 1.88 days

Question: And the “Effect on diarrhea (in words)” value (C. suis (strain Wien-I); Exp II: 5 mg/kg BW at 2 dpi)?
Answer: completely failed to control diarrhea

Question: What about the “Effect on diarrhea (in words)” value (C. suis (strain Wien-I); Exp II: 10 mg/kg BW at 2 dpi) of the same compound?
Answer: effectively suppressed diarrhea

Question: And the “Effect on diarrhea (in words)” value (C. suis (strain Wien-I); Exp II: 20 mg/kg BW at 2 dpi)?
Answer: effectively suppressed diarrhea

Question: What about the “Number of diarrhea days compared to control piglets (in words)” value (C. suis (strain Wien-I); [9]) of the same compound?
Answer: reduced number of diarrhea days

Question: What about the “BW SD 8” value [1, 10] of the same compound?
Answer: 2604 [283.8] g

Question: And the “BW SD 15” value [1, 10]?
Answer: 4198.4 [573.9] g

Question: And the “BW SD 22” value [1, 10]?
Answer: 6082 [750.1] g

Question: What about the “BW SD 29” value [1, 10] of the same compound?
Answer: 7956 [750.22] g

Question: What about the “BW SD 1” value [1, 10] of the same compound?
Answer: 1276 [227.4] g

Question: What about the “BWG SD 8 to 15 (mean body weight gain, acute phase of infection)” value ([1]; Exp I group A: 1 × 20 mg/kg BW, SD 3 (0 dpi), control D 1042 g, 20 mg/kg) of the same compound?
Answer: 1594 g and 1594.4 g

Question: And the “BW SD 8” value [1, 11]?
Answer: 2530.9 [362.3] g

Question: And the “BW SD 15” value [1, 11]?
Answer: 4292.7 [724.9] g

Question: And the “BW SD 22” value [1, 11]?
Answer: 5892.7 [1225.6] g

Question: And the “BW SD 29” value [1, 11]?
Answer: 7721.8 [1710.2] g

Question: And the “BW SD 1” value [1, 11]?
Answer: 1214.5 [206.9] g

Question: And the “BWG SD 8 to 15 (mean body weight gain, acute phase of infection)” value ([1]; Exp I group B: 1 × 20 mg/kg BW, SD 5 (2 dpi), control D 1042 g, 20 mg/kg)?
Answer: 1762 g and 1761.8 g

Question: What about the “BW SD 8” value [1, 12] of the same compound?
Answer: 2494.5 [328.9] g

Question: What about the “BW SD 15” value [1, 12] of the same compound?
Answer: 4267.3 [491.6] g

Question: What about the “BW SD 22” value [1, 12] of the same compound?
Answer: 5950.9 [619.6] g

Question: And the “BW SD 29” value [1, 12]?
Answer: 7867.3 [851.9] g

Question: What about the “BW SD 1” value [1, 12] of the same compound?
Answer: 1163.6 [205.5] g

Question: And the “BWG SD 8 to 15 (mean body weight gain, acute phase of infection)” value ([1]; Exp I group C: 2 × 20 mg/kg BW, SD 5 & 7 (2 & 4 dpi), control D 1042 g, 20 mg/kg)?
Answer: 1773 g and 1772.7 g

Question: And the “BW SD 8” value [1, 13]?
Answer: 3148.0 [610.4] g

Question: And the “BW SD 15” value [1, 13]?
Answer: 5140.0 [830.8] g

Question: And the “BW SD 22” value [1, 13]?
Answer: 6952.0 [1204.0] g

Question: What about the “BW SD 29” value [1, 13] of the same compound?
Answer: 9242.0 [1250.4] g

Question: What about the “BW SD 1” value [1, 13] of the same compound?
Answer: 1606.0 [347.4] g

Question: And the “BWG SD 8 to 15 (mean body weight gain, acute phase of infection)” value ([1]; Exp II group W: 1 × 20 mg/kg BW, SD 5 (2 dpi), control Z 389 g, 20 mg/kg)?
Answer: 1992 g and 1992.0 g

Question: What about the “BW SD 8” value [1, 14] of the same compound?
Answer: 1968.0 [632.7] g

Question: What about the “BW SD 15” value [1, 14] of the same compound?
Answer: 4606.0 [745.5] g

Question: What about the “BW SD 22” value [1, 14] of the same compound?
Answer: 6502.0 [1068.4] g

Question: And the “BW SD 29” value [1, 14]?
Answer: 8752.0 [2465.6] g

Question: What about the “BW SD 1” value [1, 14] of the same compound?
Answer: 1472.0 [353.0] g

Question: What about the “BWG SD 8 to 15 (mean body weight gain, acute phase of infection)” value ([1]; Exp II group X: 1 × 10 mg/kg BW, SD 5 (2 dpi), control Z 389 g, 10 mg/kg) of the same compound?
Answer: 1638 g and 1638.0 g

Question: And the “BW SD 8” value [1, 15]?
Answer: 2771.1 [654.5] g

Question: And the “BW SD 15” value [1, 15]?
Answer: 3891.1 [990.8] g

Question: And the “BW SD 22” value [1, 15]?
Answer: 5782.2 [1340.1] g

Question: And the “BW SD 29” value [1, 15]?
Answer: 8055.6 [1626.8] g

Question: And the “BW SD 1” value [1, 15]?
Answer: 1444.4 [391.1] g

Question: What about the “BWG SD 8 to 15 (mean body weight gain, acute phase of infection)” value ([1]; Exp II group Y: 1 × 5 mg/kg BW, SD 5 (2 dpi), control Z 389 g, 5 mg/kg) of the same compound?
Answer: 1120 g and 1120.0 g

Question: And the “Body weight gain compared to control piglets (in words)” value [1, 9]?
Answer: significant increase in body weight gain

Question: What about the “Treatment-related adverse effects that required veterinary intervention” value ([2]; 5, 10 or 20 mg/kg BW, one or two oral doses, whole study period) of the same compound?
Answer: No piglets showed treatment-related adverse effects; also recorded: without any adverse effects

Question: And the “Visible signs of toxicity, clinically relevant systemic or regional/local responses related to treatment” value ([2]; treated groups, both experiments)?
Answer: Neither visible signs of toxicity nor clinically relevant systemic or regional/local responses related to treatment were observed
